What all share (assay): NCI anticancer screen, dose series, 48 h
The test system of assay [1] is HOP-62 NSCLC.
The test system of assay [2] is M14 melanoma.
The test system of assay [3] is SF-268 CNS.
Assay [4] relates to HOP-92 NSCLC.
Assay [5] relates to OVCAR-5 ovarian.
Assay [6] concerns A498 renal.
Assay [7] has as its system SK-OV-3 ovarian.
Assay [8] has as its system K-562 leukemia.
Assay [9] concerns SK-MEL-2 melanoma.

Where “and” joins values, the source holds several entries; their conditions need not be identical. Equal values may be shown once.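 Five compound concentrations were applied to cells in 96-well plates for 48 hours; endpoints were derived by simple linear interpolation of the resulting dose-response curve. GI50: concentration for 50% inhibition of growth. At the TGI there is no net growth.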

In PubChem BioAssay (NCI) one finds TGI and GI50 data, which are given here for 29 molecules.

With `CN1C(=O)C(O)CC1c1cccc(C(F)(F)F)c1` (stereo unspecified), the TGI in [1], in assay [2], in assay [3], in assay [4], in assay [5] and in assay [6] was greater than 100 µM each time. Besides, the TGI in assay [7], in assay [8] and in assay [9] was greater than 100 µM each time.

With `O=C1CC(n2cccc2)c2c(Br)sc(Br)c21` (stereo unspecified), the TGI in assay [1] amounted to 53.4 µM; in assay [2], 30.2 µM; in assay [3], 31.2 µM; in assay [4], 33.1 µM; in assay [5], 32.5 µM; in assay [6], 56.5 µM. Besides, the TGI in assay [7] is 35.2 µM; in assay [8] it was 64.8 µM; in assay [9], 29.1 µM.

`CCCNc1ncnc2[nH]ncc12`: the TGI in assay [1], in assay [2], in [3], in [4], in assay [5] and in [6] was greater than 100 µM in each case. For the same molecule, the TGI in assay [7], in assay [8] and in [9] was greater than 100 µM throughout.

For `CCOC(=O)C1CCCCN1CCc1c[nH]c2ccccc12` (stereo unspecified), the TGI in [1], in assay [2], in assay [3], in assay [4], in assay [5] and in assay [6] was greater than 100 µM throughout. The TGI in assay [7], in [8] and in assay [9] was greater than 100 µM throughout.

With `Cc1ccc(/C(O)=C/c2nc3ccc([N+](=O)[O-])cc3nc2/C=C(\O)c2ccc(C)cc2)cc1`, the TGI is 75.8 µM in [1]; greater than 100 µM in assay [2]; greater than 100 µM in [3]; greater than 100 µM in [4]; greater than 100 µM in assay [5]; greater than 100 µM in assay [6]. In addition, the TGI is 97.6 µM in assay [7], greater than 100 µM in assay [8] and greater than 100 µM in [9].

Turning to `C(/Cc1ccc2c(c1)OCO2)=N\NC1=NCCCN1`, the TGI is greater than 100 µM in [1]; greater than 100 µM in [2]; greater than 100 µM in assay [3]; greater than 100 µM in [4]; greater than 100 µM in [5]; 72.8 µM in assay [6]. Besides, the TGI in [7], in assay [8] and in assay [9] was greater than 100 µM in each case.

In the case of `COc1ccc(-c2cc(C(O)C3CCCCN3)c3ccccc3n2)cc1` (stereo unspecified), the TGI in assay [1] stood at 24.3 µM; in [2] it was 4.61 µM; in assay [3] it was 27.7 µM; in assay [4] it was 13.1 µM; in [5] it was 24.8 µM; in assay [6], 25.4 µM. The TGI is 27.3 µM in assay [7], 8.24 µM in assay [8] and 18.5 µM in assay [9].

On to `COC(=O)c1c(C)nc(C)c(NO)c1-c1ccccc1C(F)(F)F`, for which the TGI in assay [1] was greater than 100 µM; in [2], 39.5 µM; in assay [3], greater than 100 µM; in assay [4] it was 29 µM; in [5], greater than 100 µM; in assay [6] it was greater than 100 µM. Also, the TGI in assay [7], in assay [8] and in assay [9] was greater than 100 µM throughout.

As for `CCOC(=O)c1cnccc1CC1(C#N)c2ccccc2C=CN1C(=O)c1ccccc1` (stereo unspecified), the TGI in [1] was greater than 100 µM; in assay [2] it was 79.1 µM; in assay [3] it was 82 µM; in assay [4] it was greater than 100 µM; in [5], greater than 100 µM; in assay [6], greater than 100 µM. Moreover, the results for the TGI in [7], in [8] and in assay [9] were greater than 100 µM, 49.6 µM and 41.4 µM, respectively.

For the molecule `C=C1C(=O)O[C@H]2[C@H]3O[C@@H](C[C@@H]12)[C@](C)(O)CC[C@@H]1O[C@@]1(C)CCC[C@H]3C`, the TGI in [1] was greater than 100 µM; in assay [2], 29.3 µM; in assay [3], 34.2 µM; in assay [4] it was 36.4 µM; in assay [5] it was greater than 100 µM; in [6] it was 73.2 µM. Moreover, the TGI in assay [7] was greater than 100 µM; in [8], greater than 100 µM; in [9] it was 43.6 µM.

In the case of `NCCC1CN(C(=O)OCc2ccccc2)c2ccccc21` (stereo unspecified), the TGI in assay [1] was greater than 54.4 µM; in assay [2] it was 27.4 µM; in [3] it was 39.4 µM; in assay [4], 26.9 µM; in assay [5], 45.4 µM; in assay [6] it was greater than 52.2 µM. In addition, the TGI in assay [7] was greater than 59.6 µM; in assay [8], 26.9 µM; in assay [9], 36.3 µM.

Take `S=C(NCc1ccccc1)N/N=C/c1ccccn1`: the TGI in [1] was 71.5 µM; in assay [2] it was 9.32 µM; in assay [3], greater than 91.4 µM; in [4] it was 52.7 µM; in [5], greater than 100 µM; in assay [6], greater than 100 µM. The TGI was greater than 29 µM in assay [7], greater than 100 µM in assay [8] and greater than 100 µM in assay [9].

Turning to `NCCOCC(N)C(=O)O` (stereo unspecified), the TGI in [1], in assay [2], in [3], in assay [4], in assay [5] and in assay [6] was greater than 100 µM throughout. Further, the TGI in assay [7], in [8] and in assay [9] was greater than 100 µM in each case.

On to `O=[N+]([O-])c1ccc(C(Nc2ccccc2)c2ccc3cccnc3c2O)cc1` (stereo unspecified), for which the TGI in [1] was greater than 100 µM; in assay [2] it was greater than 74.4 µM; in assay [3], greater than 52.7 µM; in assay [4], 72.9 µM; in assay [5], greater than 100 µM; in assay [6] it was greater than 100 µM. The values for the TGI in [7], in assay [8] and in [9] were greater than 100 µM, greater than 57.4 µM and greater than 100 µM, respectively.

On to `c1ccc(-c2nnn(CCN3CCCCC3)n2)cc1`, for which the TGI in assay [1], in [2], in assay [3], in [4], in assay [5] and in assay [6] was greater than 100 µM each time. Also, the TGI in assay [7], in assay [8] and in assay [9] was greater than 100 µM each time.

As for `CCOP(=O)(OCC)C(C)(CC)NC(=O)C(C(F)(F)F)C(F)(F)F` (stereo unspecified), the TGI in assay [1], in assay [2], in [3], in [4], in assay [5] and in assay [6] was greater than 100 µM throughout. Moreover, the TGI in assay [7], in [8] and in assay [9] was greater than 100 µM throughout. The GI50 in assay [8] was 18.6 µM and 39.1 µM.

Consider `CC(C)(C)OC(=O)n1cc(C2CN(O)C(=O)C23CCC(=O)N3Cc2ccccc2)c2ccccc21` (stereo unspecified), for which the TGI is greater than 100 µM in assay [1]; greater than 100 µM in assay [2]; greater than 100 µM in assay [3]; 50.8 µM in assay [4]; greater than 100 µM in [5]; 74.8 µM in assay [6]. Besides, the TGI in [7] is 66.5 µM; in assay [8], greater than 100 µM; in assay [9], 35.7 µM.

Regarding `COc1ccc(CCN2CCc3c(C)c(C#N)c4nc5ccccc5n4c32)cc1OC`, the TGI in assay [1] is greater than 100 µM; in assay [2], greater than 100 µM; in assay [3], greater than 100 µM; in assay [4] it was 90.6 µM; in assay [5], greater than 100 µM; in assay [6], greater than 100 µM. In addition, the TGI was greater than 100 µM in assay [7], 55.7 µM in [8] and 44.7 µM in assay [9].

Regarding `NC1=NCC(CN2CCCC2)O1` (stereo unspecified), the TGI in assay [1], in assay [2], in assay [3], in assay [4], in assay [5] and in [6] was greater than 100 µM in each case. The TGI in assay [7], in [8] and in assay [9] was greater than 100 µM each time.

On to `CS(=O)(=O)NC12CCC(c3ccccc31)c1ccccc12`, for which the TGI in [1], in [2], in assay [3], in [4], in assay [5] and in assay [6] was greater than 100 µM throughout. Further, the TGI in [7], in [8] and in [9] was greater than 100 µM throughout.

As to `NC(=O)CO/N=C1/C(c2c(O)[nH]c3ccccc23)=Nc2ccccc21`, the TGI in [1], in assay [2], in [3], in [4], in assay [5] and in assay [6] was greater than 100 µM throughout. The TGI in assay [7], in assay [8] and in assay [9] was greater than 100 µM throughout.

For `Cc1cc2c(c(=O)n1C)SCC2`, the TGI in [1], in [2], in assay [3], in [4], in [5] and in assay [6] was greater than 100 µM each time. The TGI in assay [7], in assay [8] and in assay [9] was greater than 100 µM throughout.

For `NC(=O)Cc1nc2c(=O)[nH]cnc2n1C1OC(CO)C(O)C1O` (stereo unspecified), the TGI in assay [1], in assay [2], in [3], in assay [4], in [5] and in [6] was greater than 100 µM in each case. Further, the TGI in assay [7], in [8] and in assay [9] was greater than 100 µM each time.

For `COc1ccc2nc3n(c2c1)CCc1cc(OC)c(OC)cc1-3`, the TGI in assay [1], in [2], in assay [3], in assay [4], in assay [5] and in [6] was greater than 100 µM throughout. The TGI in assay [7], in [8] and in assay [9] was greater than 100 µM throughout.

On to `O=C(c1ccco1)N(C(=S)OC12CC3CC(CC(C3)C1)C2)c1ccccc1`, for which the TGI was greater than 100 µM in assay [1]; 43.7 µM in assay [2]; greater than 100 µM in assay [3]; greater than 100 µM in assay [4]; greater than 100 µM in assay [5]; 84.6 µM in assay [6]. Moreover, the TGI in assay [7] is greater than 100 µM; in assay [8] it was greater than 100 µM; in assay [9], 40.9 µM.

Take `O=C(/C=C/c1cccs1)c1ccccc1Cl`: the TGI in assay [1] is 32.1 µM; in assay [2], greater than 55.9 µM; in [3] it was 26.4 µM; in assay [4], 97.5 µM; in [5], 28.9 µM; in assay [6] it was 24 µM. Besides, the figures for the TGI in assay [7], in assay [8] and in [9] were greater than 77.9 µM, greater than 100 µM and 43.6 µM, respectively.

As to `O=c1cc(NCc2ccncc2)[nH]c(=O)[nH]1`, the TGI in assay [1], in assay [2], in assay [3], in [4], in assay [5] and in assay [6] was greater than 100 µM each time. Moreover, the TGI in assay [7], in assay [8] and in [9] was greater than 100 µM each time.

As to `Cc1ccc(S(=O)(=O)N(CC(O)COc2ccccc2)c2ccc(F)cc2F)cc1` (stereo unspecified), the TGI in assay [1] worked out at 30.1 µM; in [2], 34.1 µM; in assay [3], 31.8 µM; in assay [4] it was 12.4 µM; in assay [5], 34.1 µM; in assay [6], 28.7 µM. The TGI in assay [7] is 41.6 µM; in [8], greater than 100 µM; in assay [9], 30.4 µM.

For `O=C(Nc1cccc(-n2cc(-c3ccncc3)c(-c3ccc(O)c(Cl)c3)n2)c1)c1cccc(C(F)(F)F)c1`, the GI50 was 8.86 µM in assay [1]; 2.72 µM in [2]; 7.11 µM in [3]; 0.434 µM in assay [4]; 23.7 µM in [5]; 3.44 µM in assay [6]. The GI50 in assay [7] was 99.1 µM; in assay [8] it was 2.41 µM; in assay [9], 4.54 µM. Further, the TGI was greater than 100 µM in [1]; greater than 100 µM in assay [2]; greater than 100 µM in [3]; 4.11 µM in assay [4]; greater than 100 µM in assay [5]; greater than 100 µM in assay [6]. The TGI was greater than 100 µM in assay [7], greater than 100 µM in assay [8] and 38.1 µM in assay [9].
